Test results reported in patent US20230270721A1, “INHIBITION OF BAX-MEDIATED CELL DEATH BY ELTROMBOPAG” (Albert Einstein College of Medicine, priority 2020, published 2023).
pIC50: −log10 of the molar value.

Columns and labels:
BAX [1] = target: T1, BAX (Homo sapiens, UniProt Q07812); experiment: Liposomal translocation assay with NBD-labeled BAX; format: biochemical; settings: for pIC50: NBD-labeled BAX 800 nM, 120 minutes
T1 construct: Human full-length (1-192) wild-type BAX (Q07812); made in house; host or cells: E. coli BL21 (DE3) CodonPlus (DE3)-RIPL
Experimental: Lipids (Avanti Polar Lipids) at the following ratio, phosphatidylcholine 48%, phosphatidylinositol 10%, dioleoyl phosphatidylserine 10%, phosphatidylethanolamine, 28%, and tetraoleoyl cardiolipin 4%, were mixed in a total of 1 mg, dried and resuspended in 10 mM HEPES, pH 7, 200 mM KCl, and 5 mM MgCl2. The resulting slurry was vortexed for 10 minutes and sonicated in a sonicating water bath for 10 minutes. Liposomes were formed by extrusion of the suspension using Avanti Mini-Extruder with polycarbonate membranes of 0.1 µm pore size (Avanti Polar Lipids) followed by passage through a CL2B Sepharose column (GE Healthcare). Recombinant wild type BAX was labeled at cysteine by overnight incubation at 4° C. with 10 equivalents of iodoamino-NBD (IANBD, Thermo Fisher) and 3 equivalents of TCEP to maintain reduced cysteine. Labeled BAX (BAX-NBD) was separated from unreacted IANBD by gel filtration (Econo-Pac 10 DG desalting column, BioRad) and used immediately. […] Upon BAX-NBD translocation, the NBD fluorophore was excluded from bulk water through contact with the liposomal membrane leading to an increase in fluorescence intensity. Fluorescence (λex = 475 nm and λem = 530 nm) was measured at 1-minute intervals at 37° C. indicated using a Tecan Infinite M1000 plate reader. The percentage translocation at any given time point was calculated as percentage translocation=[((F-F0)/(F100-F0))(100)]-[((FS-FS0)/(FS100-FS0))(100)] where F0 and F100 are baseline and maximal fluorescence, respectively and FS, FS0, and FS100 are the current fluorescence, baseline fluorescence, maximal fluorescence of solution BAX incubated in the absence of liposomes. The subtraction of the percent translocation of solution BAX is required to correct for NBD fluorescence bleaching that occurs throughout the reaction. […]
Prior to permeabilizing membranes, activated BAX must first translocate to the membrane (Lovell, J. F. et al. Cell 135, 1074-1084, (2008)). To explore this earlier step in BAX activation, an NBD-fluorescence-based translocation assay was used. […]

BAX [2] = target: T1, BAX; experiment: Liposomal permeabilization (ANTS/DPX release) assay; format: biochemical; settings: for pIC50: 30 minutes
Experimental: Lipids (Avanti Polar Lipids) at the following ratio, phosphatidylcholine 48%, phosphatidylinositol 10%, dioleoyl phosphatidylserine 10%, phosphatidylethanolamine, 28%, and tetraoleoyl cardiolipin 4%, were mixed in a total of 1 mg, dried and resuspended in 10 mM HEPES, pH 7, 200 mM KCI, and 5 mM MgCl2 with 12.5 mM 8-aminonaphthalene-1,3,6-trisulfonic acid (ANTS) dye and 45 mM p-xylene-bis-pyridinium bromide (DPX) quencher (Molecular Probes) using a water bath sonicator. Liposomes were formed by extrusion of the suspension using Avanti Mini-Extruder (Cat # 610000) with polycarbonate membranes of 0.1 µm pore size (Avanti Polar Lipids). ANTS/DPX encapsulated liposomes were purified from non-encapsulated ANTS/DPX by gel filtration of a 10 mL CL2B-Sepharose (GE Healthcare Life Sciences) gravity-flow column. BAX (50-250 nM) was combined with tBID, BIM, and EO at the indicated concentrations to a volume of 90 µL. Reactions were initiated by the addition of […] of the encapsulated ANTS/DPX liposome stock. ANTS/DPX release was quantified based on the increase in fluorescence intensity that occurs when the ANTS fluorophore is separated from the DPX quencher upon release from the liposomes into solution. Fluorescence (λex = 355 nm and λem = 520 nm) was measured at 1 minute intervals at room temperature (22-25° C.) indicated using a Tecan Infinite M1000 plate reader. In the case of heat activation, reactions were set up as described in the absence of tBID or BIM, and experiments were recorded at 42° C. The percentage release of ANTS/DPX at any given time point was calculated as percentage release=((F-F0)/(F100-F0))(100), where F0 and F100 are baseline and maximal fluorescence, respectively. Triton X-100 (1%) was used to determine the maximum amount of liposomal release per assay and was set to 100%.
Next, EO’s capacity to modulate BAX activity was evaluated using liposomal release assays. […] Instead, EO was able to inhibit both tBID- and BIM BH3-mediated BAX activation (FIGS. 1E, 1F, and 1G). Inhibition of tBID-mediated BAX activation by EO was inversely proportional to the concentration of the tBID activator, consistent with competitive inhibition of BH3-activator binding.

BAX [3] = target: T1, BAX; experiment: Recombinant BAX TM (Tycho NT.6); format: binding; settings: 1:10 BAX:EO
Experimental: Purified recombinant BAX ([…]) was combined with DMSO or EO (1:10 BAX:EO) and loaded into Tycho NT.6 (NanoTemper Technologies) capillaries. First derivative (330/350 nm) melting point curves were generated automatically using the Tycho NT.6 (NanoTemper Technologies). Data was exported and to GraphPad PRISM software for analysis and visualization.
To confirm direct engagement of BAX, Cellular Thermal Shift Assay (CETSA) was performed in BAK KO MEFs.

[4] = system: megakaryocyte precursors and progenitor cells; settings: differentiation of megakaryocyte precursors and progenitor cells; cited from earlier work
[5] = cited from earlier work

T1 sequence (Q07812 whole entry): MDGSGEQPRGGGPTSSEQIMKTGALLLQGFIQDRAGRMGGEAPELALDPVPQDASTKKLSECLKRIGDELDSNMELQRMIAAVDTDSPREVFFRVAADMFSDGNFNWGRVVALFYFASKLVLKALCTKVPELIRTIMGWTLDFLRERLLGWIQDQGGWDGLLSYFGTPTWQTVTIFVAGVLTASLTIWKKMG

What does the source list for CC1=NN(c2ccc(C)c(C)c2)C(=O)/C1=N\Nc1cccc(-c2cccc(C(=O)O)c2)c1O [EO, eltrombopag]?
pIC50 (BAX [1]; BIM BH3 1 µM, read-out: BIM IC50, inhibition of BAX translocation): 5.24; pIC50 (BAX [1]; tBID 200 nM, read-out: tBID IC50, inhibition of BAX translocation): 5.20; heat-induced auto-translocation of BAX (BAX [1]; heat-induced, no BH3 activator): capable of inhibiting heat-induced auto-translocation of BAX; pIC50 (BAX [2]; 50 nM BAX and 5 nM tBID, read-out: tBID IC50, inhibition of BAX activity in liposomal release): 5.62; pIC50 (BAX [2]; 50 nM BAX, read-out: BIM IC50, inhibition of BAX activity in liposomal release): 5.33; pIC50 (BAX [2]; 250 nM BAX at 42° C., read-out: heat IC50, inhibition of BAX activity in liposomal release): 5.35; ability to activate BAX in liposomal release assay (BAX [2]; concentrations up to 10 µM, no activator): no ability to activate BAX; change in TM of recombinant BAX (BAX [3]): comparable reduction in TM; time for stimulation of platelet production to begin [4]: 5 days; time of peak concentration ([5]; after oral administration): 2 to 6 h; oral bioavailability ([5]; in vivo, po): excellent oral bioavailability; half-life ([5]; oral administration): 21 to 32 h
